Source: ChEMBL document CHEMBL1201862, “PubChem BioAssay data set” (2004)
Active and inactive are the calls of the source.

Legend:
[1] = loss of viability in HepG2 cells – cell-based, CellTiter-Glo, cherry-picked, cytotoxicity control for Shn3 inhibitor project, dose response (AID 624134); assay type: functional
[2] = MIN6 cell viability loss – mouse insulinoma, cytotoxicity control, dose response (AID 2122); assay type: functional;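 further: confirmatory high-throughput counterscreen run to flag cytotoxic compounds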
[3] = reduction of Shn3 3'UTR-driven luciferase in osteoblasts – cell-based, Clone20 osteoblasts, firefly luciferase, cherry-picked, dose response (AID 624132); assay type: functional;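 further: firefly luciferase luminescence from reporter carrying the Shn3 3'UTR in osteoblasts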
[4] = decrease of insulin promoter-GFP reporter – imaging, high-content screening, mouse beta cells (AID 1628); assay type: functional; conditions: MIN6
[5] = non-specific 3'UTR reporter inhibition in Clone20-Shn3RL – cell-based, Renilla luciferase, cherry-picked, counter-screen for Shn3 inhibitor project, dose response (AID 624133); assay type: functional
[6] = molecular target: T1, Endoribonuclease toxin MazF (Escherichia coli K-12, UniProt P0AE70); experiment: substrate-only fluorescence increase artefacts – biochemical, single-stranded RNase substrate, counter-screen for MazEF activator project, dose response (AID 588502); assay type: functional
T1 sequence (P0AE70 whole entry): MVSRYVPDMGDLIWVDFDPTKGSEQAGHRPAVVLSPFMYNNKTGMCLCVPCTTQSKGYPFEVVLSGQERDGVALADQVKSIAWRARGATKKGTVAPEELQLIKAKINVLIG

[7] = molecular target: T1, Endoribonuclease toxin MazF; experiment: activation of MazEF endoribonuclease cleavage – biochemical, fluorescence, single-stranded RNA substrate, uHTS hits, dose response (AID 588481); assay type: functional
[8] = molecular target: T2, Cytochrome P450 3A4 (Homo sapiens, UniProt P08684);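 further: CYP3A4 tested as one member of a cytochrome P450 panel screen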
[9] = molecular target: Cytochrome P450 2C19 (Homo sapiens, UniProt P33261); experiment: Cytochrome panel assay with activity outcomes. Panel member name: p450-cyp2c19 Compounds with AC50 equal or less than 10 uM are considered active; assay type: functional; conditions: read-out: AC50
[10] = molecular target: Cytochrome P450 2C9 (Homo sapiens, UniProt P11712)
[11] = molecular target: T3, Cytochrome P450 1A2 (Homo sapiens, UniProt P05177);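 further: PubChem cytochrome P450 panel assay, CYP1A2 panel member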
T3 sequence (P05177 whole entry): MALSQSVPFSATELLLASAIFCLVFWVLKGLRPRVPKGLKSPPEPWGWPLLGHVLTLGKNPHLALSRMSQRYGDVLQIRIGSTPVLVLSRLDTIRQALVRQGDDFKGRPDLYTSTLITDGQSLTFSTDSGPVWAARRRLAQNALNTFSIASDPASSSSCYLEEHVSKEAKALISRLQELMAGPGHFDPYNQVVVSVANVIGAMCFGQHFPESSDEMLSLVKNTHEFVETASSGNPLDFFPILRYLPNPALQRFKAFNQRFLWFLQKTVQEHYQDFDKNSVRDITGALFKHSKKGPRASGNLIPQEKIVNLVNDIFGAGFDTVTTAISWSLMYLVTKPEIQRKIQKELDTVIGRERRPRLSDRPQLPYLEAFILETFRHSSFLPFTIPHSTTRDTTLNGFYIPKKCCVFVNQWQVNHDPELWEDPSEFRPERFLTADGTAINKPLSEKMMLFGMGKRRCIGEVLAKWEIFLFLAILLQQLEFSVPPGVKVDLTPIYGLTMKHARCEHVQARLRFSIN

[12] = THP-1 cell cytotoxicity, dose response, cytotoxicity control for non-replicating M. tuberculosis project (AID 489025); assay type: functional
[13] = cells; assay type: functional
[14] = Vero E6 cell cytotoxicity, dose response, cytotoxicity control for non-replicating M. tuberculosis project, secondary assay (AID 492998); assay type: functional, VeroE6; conditions: Vero C1008
[15] = molecular target: Cytochrome P450 2D6 (Homo sapiens, UniProt P10635);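 further: CYP2D6 member of a cytochrome P450 panel assay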
[16] = molecular target: T4, Polyadenylate-binding protein 1 (Homo sapiens, UniProt P11940); experiment: MLLE domain peptide-binding blockers, IC50 – biochemical, fluorescence polarization, FITC-PAM2 peptide, dose response (AID 602259); assay type: functional; conditions: read-out: IC50_Mean
[17] = molecular target: T4, Polyadenylate-binding protein 1; experiment: MLLE binding blockers, Cy5 peptide tracer – biochemical, fluorescence polarization, Cy5-PAM2 peptide, secondary, miRNA deadenylation inhibitor project, dose response (AID 602260); assay type: functional; conditions: read-out: IC50_Mean
[18] = molecular target: T5, Fatty acid synthase (Homo sapiens, UniProt P49327); experiment: inhibition of human FAS-TE enzyme activity – biochemical, kinetic fluorescence intensity, dose response (AID 624326); assay type: functional;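 further: rate of fluorescence rise from hydrolysis of a fluorogenic O-methyl fluorescein ester substrate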
[19] = molecular target: T5, Fatty acid synthase; experiment: inhibition of human FAS-TE enzyme activity – biochemical, endpoint fluorescence intensity, uHTS hits, dose response (AID 624327); assay type: functional;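 further: fluorescence from hydrolysis of an O-methyl fluorescein acyl ester substrate by the enzyme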
[20] = molecular target: T2, Cytochrome P450 3A4; remark: listed apart in the source
[21] = cells; assay type: functional, cell-based
[22] = cells; assay type: functional, cell-based; remark: listed apart in the source
[23] = NIH3T3 cell viability loss – ATP luminescence, mouse fibroblasts, counter-screen, dose response (AID 2010); assay type: functional, cell-based;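 further: cells exposed to compound for about 90 hours before reading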
[24] = Trypanosoma cruzi growth suppression in host cells – NIH3T3 host cells, beta-gal luminescence, confirmation (AID 2044); assay type: functional, cell-based;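 further: intracellular parasites grown in NIH/3T3 mouse fibroblasts as host cells; luminescent beta-galactosidase reporter signal from transgenic T. cruzi replicating inside host cells; inhibitors lower the luminescence signal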
[25] = NIH-3T3 fibroblast cytotoxicity, dose response, cytotoxicity control, cell-based, fluorescence, Alamar Blue, secondary assay (AID 2327); assay type: functional;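 further: NIH-3T3 mouse fibroblasts cultured with fluconazole at 8 µg/mL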
[26] = fluconazole-exposed Candida albicans growth modulators – fluorescence, retest, confirmation (AID 2467); assay type: functional, cell-based

T2 sequence (P08684 whole entry): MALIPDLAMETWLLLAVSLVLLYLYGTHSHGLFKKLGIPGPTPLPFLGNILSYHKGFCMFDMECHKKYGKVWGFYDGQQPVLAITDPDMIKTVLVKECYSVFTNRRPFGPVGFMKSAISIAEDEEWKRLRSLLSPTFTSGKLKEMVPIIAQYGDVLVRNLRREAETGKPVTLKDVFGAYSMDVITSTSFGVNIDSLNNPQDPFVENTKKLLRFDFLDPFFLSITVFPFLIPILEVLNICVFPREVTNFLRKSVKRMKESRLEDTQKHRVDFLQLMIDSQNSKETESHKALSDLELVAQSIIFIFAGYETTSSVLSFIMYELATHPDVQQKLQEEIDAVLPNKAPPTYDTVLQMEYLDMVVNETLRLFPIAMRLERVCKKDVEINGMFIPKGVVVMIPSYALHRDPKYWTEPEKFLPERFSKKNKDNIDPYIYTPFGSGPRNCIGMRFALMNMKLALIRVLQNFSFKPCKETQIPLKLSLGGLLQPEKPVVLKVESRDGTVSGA
Sequence of Cytochrome P450 2C9 (P11712 whole entry): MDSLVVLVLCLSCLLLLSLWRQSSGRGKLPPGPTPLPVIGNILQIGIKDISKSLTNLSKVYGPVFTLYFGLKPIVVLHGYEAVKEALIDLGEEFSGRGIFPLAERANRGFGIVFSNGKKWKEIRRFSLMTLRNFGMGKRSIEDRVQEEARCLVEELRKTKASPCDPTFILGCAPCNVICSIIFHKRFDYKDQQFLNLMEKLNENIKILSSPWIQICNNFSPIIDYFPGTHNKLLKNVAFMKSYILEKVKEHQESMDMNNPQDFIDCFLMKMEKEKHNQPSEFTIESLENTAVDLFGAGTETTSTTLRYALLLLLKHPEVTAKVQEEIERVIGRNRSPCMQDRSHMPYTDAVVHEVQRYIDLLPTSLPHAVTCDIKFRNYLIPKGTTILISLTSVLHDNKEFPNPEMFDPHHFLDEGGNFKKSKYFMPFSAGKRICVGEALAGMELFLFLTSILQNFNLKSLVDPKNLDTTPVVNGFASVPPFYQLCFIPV
T5 sequence (P49327 whole entry): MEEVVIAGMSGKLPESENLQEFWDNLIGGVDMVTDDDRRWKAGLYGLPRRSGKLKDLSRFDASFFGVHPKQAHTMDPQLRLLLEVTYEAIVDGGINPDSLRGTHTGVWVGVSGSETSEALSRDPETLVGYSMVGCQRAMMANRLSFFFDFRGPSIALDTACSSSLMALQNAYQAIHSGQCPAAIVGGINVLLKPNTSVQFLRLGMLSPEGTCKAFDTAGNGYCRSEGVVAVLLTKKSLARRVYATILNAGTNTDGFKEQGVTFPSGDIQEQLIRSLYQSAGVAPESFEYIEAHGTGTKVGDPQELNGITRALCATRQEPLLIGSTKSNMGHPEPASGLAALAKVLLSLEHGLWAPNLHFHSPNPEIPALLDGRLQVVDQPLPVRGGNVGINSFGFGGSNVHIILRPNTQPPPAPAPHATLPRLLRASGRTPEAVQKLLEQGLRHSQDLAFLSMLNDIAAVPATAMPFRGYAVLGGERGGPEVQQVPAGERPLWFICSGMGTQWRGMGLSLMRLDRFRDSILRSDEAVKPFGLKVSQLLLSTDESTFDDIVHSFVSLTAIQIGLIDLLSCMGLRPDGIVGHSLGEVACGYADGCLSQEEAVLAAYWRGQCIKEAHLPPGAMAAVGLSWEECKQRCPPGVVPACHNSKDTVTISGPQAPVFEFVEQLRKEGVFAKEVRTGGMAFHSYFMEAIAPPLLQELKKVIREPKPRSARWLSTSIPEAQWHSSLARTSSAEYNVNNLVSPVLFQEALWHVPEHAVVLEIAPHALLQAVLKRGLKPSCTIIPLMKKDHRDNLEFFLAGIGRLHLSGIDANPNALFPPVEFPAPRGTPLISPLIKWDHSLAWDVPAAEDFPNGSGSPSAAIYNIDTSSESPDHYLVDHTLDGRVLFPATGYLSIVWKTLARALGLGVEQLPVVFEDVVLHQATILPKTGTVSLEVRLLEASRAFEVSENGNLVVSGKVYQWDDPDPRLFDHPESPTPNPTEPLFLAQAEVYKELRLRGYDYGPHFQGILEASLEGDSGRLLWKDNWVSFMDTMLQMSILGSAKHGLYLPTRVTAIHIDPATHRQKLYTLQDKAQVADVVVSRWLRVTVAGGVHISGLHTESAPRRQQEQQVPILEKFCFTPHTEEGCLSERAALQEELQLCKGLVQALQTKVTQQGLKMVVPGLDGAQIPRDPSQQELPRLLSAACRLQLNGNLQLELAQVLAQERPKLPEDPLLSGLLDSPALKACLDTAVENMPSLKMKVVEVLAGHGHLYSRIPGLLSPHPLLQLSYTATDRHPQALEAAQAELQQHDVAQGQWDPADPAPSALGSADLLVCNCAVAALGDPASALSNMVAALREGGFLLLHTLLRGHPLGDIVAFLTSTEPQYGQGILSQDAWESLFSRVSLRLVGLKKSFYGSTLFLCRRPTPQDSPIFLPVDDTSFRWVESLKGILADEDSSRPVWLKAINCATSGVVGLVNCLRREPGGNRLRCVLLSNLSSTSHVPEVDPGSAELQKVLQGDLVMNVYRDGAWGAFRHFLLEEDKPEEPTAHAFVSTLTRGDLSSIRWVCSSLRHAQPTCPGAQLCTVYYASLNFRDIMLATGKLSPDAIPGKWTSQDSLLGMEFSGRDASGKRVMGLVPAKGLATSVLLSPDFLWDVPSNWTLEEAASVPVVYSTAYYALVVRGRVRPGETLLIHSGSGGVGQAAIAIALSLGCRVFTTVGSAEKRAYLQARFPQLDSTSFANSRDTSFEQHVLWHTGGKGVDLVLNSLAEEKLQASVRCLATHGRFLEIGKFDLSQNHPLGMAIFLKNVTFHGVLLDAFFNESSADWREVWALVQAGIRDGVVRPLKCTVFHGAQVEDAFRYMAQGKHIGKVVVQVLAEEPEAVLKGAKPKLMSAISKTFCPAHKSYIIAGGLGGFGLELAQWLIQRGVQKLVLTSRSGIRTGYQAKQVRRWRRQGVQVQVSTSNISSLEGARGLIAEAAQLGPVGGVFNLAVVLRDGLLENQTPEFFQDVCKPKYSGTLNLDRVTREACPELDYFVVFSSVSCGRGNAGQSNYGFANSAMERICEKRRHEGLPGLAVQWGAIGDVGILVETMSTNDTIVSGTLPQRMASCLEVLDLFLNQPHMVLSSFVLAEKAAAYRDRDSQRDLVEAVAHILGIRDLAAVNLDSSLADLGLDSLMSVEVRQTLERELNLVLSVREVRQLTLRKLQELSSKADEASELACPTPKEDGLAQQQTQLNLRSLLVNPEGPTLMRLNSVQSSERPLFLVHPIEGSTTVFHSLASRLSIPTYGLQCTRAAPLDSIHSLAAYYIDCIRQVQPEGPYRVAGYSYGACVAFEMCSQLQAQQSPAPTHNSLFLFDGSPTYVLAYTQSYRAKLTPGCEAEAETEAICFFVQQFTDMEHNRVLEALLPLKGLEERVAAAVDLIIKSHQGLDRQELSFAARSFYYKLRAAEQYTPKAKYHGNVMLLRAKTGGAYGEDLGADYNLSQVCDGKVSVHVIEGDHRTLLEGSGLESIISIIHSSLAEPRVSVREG
Sequence of Cytochrome P450 2C19 (P33261 whole entry): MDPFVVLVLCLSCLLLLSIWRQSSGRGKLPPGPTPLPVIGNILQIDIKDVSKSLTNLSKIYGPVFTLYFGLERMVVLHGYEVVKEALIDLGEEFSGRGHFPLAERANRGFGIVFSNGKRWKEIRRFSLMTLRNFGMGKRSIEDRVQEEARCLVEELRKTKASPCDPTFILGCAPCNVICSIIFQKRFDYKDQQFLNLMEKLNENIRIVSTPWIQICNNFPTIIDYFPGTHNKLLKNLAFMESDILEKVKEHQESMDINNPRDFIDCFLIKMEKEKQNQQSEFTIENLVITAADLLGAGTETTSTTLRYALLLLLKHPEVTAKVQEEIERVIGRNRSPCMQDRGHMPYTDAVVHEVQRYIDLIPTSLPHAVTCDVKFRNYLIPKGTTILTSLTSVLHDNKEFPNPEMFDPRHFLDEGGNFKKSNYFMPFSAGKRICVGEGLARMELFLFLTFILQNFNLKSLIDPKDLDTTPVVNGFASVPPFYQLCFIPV
T4 sequence (P11940 whole entry, the tested form may be a part): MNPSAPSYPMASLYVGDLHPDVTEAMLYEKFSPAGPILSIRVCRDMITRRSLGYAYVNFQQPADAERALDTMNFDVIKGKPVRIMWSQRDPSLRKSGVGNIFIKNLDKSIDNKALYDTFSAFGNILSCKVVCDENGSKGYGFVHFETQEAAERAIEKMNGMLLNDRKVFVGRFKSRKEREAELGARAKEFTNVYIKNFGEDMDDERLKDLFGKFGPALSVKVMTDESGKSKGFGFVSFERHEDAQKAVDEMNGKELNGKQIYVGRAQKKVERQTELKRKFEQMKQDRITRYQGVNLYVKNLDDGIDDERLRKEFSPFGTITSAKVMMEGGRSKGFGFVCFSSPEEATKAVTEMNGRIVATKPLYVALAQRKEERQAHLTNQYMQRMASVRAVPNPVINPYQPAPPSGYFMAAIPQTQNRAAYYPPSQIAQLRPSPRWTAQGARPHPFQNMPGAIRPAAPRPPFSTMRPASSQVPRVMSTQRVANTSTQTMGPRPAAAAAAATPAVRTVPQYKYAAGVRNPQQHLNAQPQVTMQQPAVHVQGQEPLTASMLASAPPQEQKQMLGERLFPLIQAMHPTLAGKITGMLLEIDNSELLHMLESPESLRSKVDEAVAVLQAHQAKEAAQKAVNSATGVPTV

## Cn1c(=O)n(C)c2cc([N+](=O)[O-])c(N3CCN(S(=O)(=O)c4ccc(C(C)(C)C)cc4)CC3)cc21
[1]
  AC50: > 70 µM (inactive)
[2]
  IC50: 4.02 µM (active)
[3]
  AC50: 3.53 µM (active)
[4]
  IC50: 2.73 µM (active)
[5]
  AC50: 9.33 µM (active)

## O=C(Nc1cc[n+](-c2nc3ccccc3nc2[N-]S(=O)(=O)c2ccc(Cl)cc2)cc1)c1cccs1
[6]
  EC50: > 99 µM (inactive)
[7]
  EC50: > 99 µM (inactive)

## C[C@H](N[C@@H](C)CCc1ccccc1)[C@H](O)c1ccc(O)cc1
[8]
  AC50: inconclusive
[9]
  AC50: 10 µM (inconclusive)

## N#CCCn1c(=O)cnc2cnc(N3CCNCC3)nc21
[10]
  AC50: inconclusive
[11]
  AC50: 12.6 µM (inconclusive)

## CCOc1ccc(C(C)=O)cc1N1C(=O)C2C3C=CC(O3)C2C1=O (configuration not stated)
[10]
  AC50: inconclusive
[9]
  AC50: 39.8 µM (inconclusive)

## O=S(=O)(c1cccc2nsnc12)N1CCCC1
[11]
  AC50: 14.1 µM (inconclusive)
[8]
  AC50: inconclusive

## O=C(OCCNc1ccc(C(F)(F)F)cc1[N+](=O)[O-])c1cc2ccccc2oc1=O
[6]
  EC50: 89.7 µM (inactive)
[7]
  EC50: 27.7 µM (inactive)

## Cc1cc(C)c2nc(N=C(N)NC(=O)Nc3ccccc3)nc(C)c2c1
[12]
  CC50: > 40 µM (active)
[13]
  IC50: 8.18 µM (active)
[14]
  CC50: > 20 µM (active)

## CC(C)(C)n1ncc2c(=O)n(CC(=O)NCc3ccccc3Cl)cnc21
[10]
  AC50: inconclusive
[15]
  AC50: 11.2 µM (inconclusive)

## Cc1ccc(NC(=O)CC2SC3=NCCN3C2=O)cc1 (configuration not stated)
[16]
  IC50: > 66 µM (inactive)
[17]
  IC50: > 66 µM (inactive)

## NC(=O)CSc1nnc(-c2cc(-c3cccs3)nc3ccccc23)o1
[6]
  EC50: > 99 µM (inactive)
[7]
  EC50: > 99 µM (inactive)

## CC1=C(CC[C@H](C)CO)O[C@@H]2C[C@@H]3[C@H]4CC[C@H]5C[C@@H](O)CC[C@]5(C)[C@@H]4CC(=O)[C@@]3(C)[C@@H]12
[8]
  AC50: inconclusive

## Cc1ccc(-c2nn3c(C)nnc3s2)cc1NCc1c(F)cccc1Cl
[2]
  IC50: 5.76 µM (active)
[4]
  IC50: 3.44 µM (active)

## O=C(c1ccc([N+](=O)[O-])cc1)N1CCC(Cc2ccccc2)CC1
[18]
  IC50: 8.61 µM (active)
[19]
  IC50: 10.9 µM (active)

## O=c1[nH]n(-c2cccc3cccnc23)c(=O)c2ccccc12
[10]
  AC50: inconclusive
[11]
  AC50: 6.31 µM (inconclusive)
[20]
  AC50: 25.1 µM (inconclusive)

## CC(=O)Nc1ccc(S(=O)(=O)Nc2ccc(S(=O)(=O)Nc3nccs3)cc2)cc1
[21]
  EC50: > 350 µM (not active)
[22]
  EC50: > 350 µM (not active)

## C(#Cc1ccccc1)C[N+]1(CC#Cc2ccccc2)CCCCC1
[23]
  EC50: > 60 µM (not active)
[2]
  IC50: < 0.25 µM (active)
[24]
  EC50: 1.88 µM (active)
[4]
  IC50: < 0.25 µM (active)
[25]
  EC50: > 160 µM (inactive)
[26]
  EC50: > 38 µM (not active)
